Legend:
[1] = system: Physcomitrella patens moss; assay: Bioluminescence of transgenic moss gametophytes soaked in hispidin; assay type: in vivo; settings: hispidin 900 μg/ml in BCD medium
Source text: Coding sequences of Neonothopanus nambi hispidin hydroxylase and luciferase were optimized for expression in Physcomitrella patens moss cells. Then, in silico there was created an expression cassette comprising promoter of rice aktI gene, human cytomegalovirus 5′-untranslated region coding hispidin hydroxylase sequence optimized for expression in plant cells (SEQ ID NO 103), terminating codon, Agrobacterium osc gene terminator sequence, rice ubiquitin promoter, coding sequence of Neonothopanus nambi luciferase (SEQ ID NO 112) optimized for expression in moss cells, Agrobacterium tumefaciens nos gene terminator.
The obtained sequence was synthesized in such a way, that all said fragments appeared to be operatively cross-linked to each other, and cloned by Gibson assembly technique [Gibson et al., Nat Methods, 2009, 6:343-5] into expression vector pLand #1 (Institut Jean-Pierre Bourgin, France), between DNA fragments coincident with locus of Physcomitrella patens moss genomic DNA between sequences of highly expressed moss genes Pp3c16_6440 V3.1 and Pp3c16_6460 V3.1. The vector pLand #1 also comprised a guide RNA (sgRNA) sequence for Cas9 nuclease, complementary to the region of the same DNA locus. […]
The obtained moss gametophytes were soaked in BCD medium comprising hispidin at concentration of 900 μg/ml, and analyzed by means of IVIS Spectrum In Vivo Imaging System (Perkin Elmer).

HEK293NT cells = assay: Luminescence of HEK293NT cells expressing hispidin hydroxylase and luciferase on adding hispidin; assay type: cell-based, human; settings: hispidin 800 μg/ml, 24 hours after transfection
[2] = system: hispidin hydroxylase and luciferase fusion protein; assay: Bioluminescence of HEK293T cells expressing hispidin hydroxylase and luciferase fusion protein; assay type: cell-based, Neonothopanus nambi; settings: 24 hours after transfection, 1 million of cells in 0.5 ml PBS; hispidin 10 μg per 1 million of cells
Source text: Humanized DNA sequences coding hispidin-hydroxylase and luciferase of Neonothopanus nambi, obtained according to Example 2, were operatively cross-linked to each other by flexible short peptide linker with amino acid sequence GGSGGSGGS (SEQ ID NOs:115). Nucleotide and amino acid sequences of the obtained fused protein are shown in SEQ ID NO 101 and 102. Nucleic acid coding fused protein was cloned into pEGFP-N1 vector (Clontech, USA) instead of EGFP gene under Cytomegaloviral promoter control. The obtained structure was transfected into HEK293T cells. Analogous vectors, comprising individual genes of hispidin hydroxylase and luciferase, were also co-transfected. Transfection was performed by transfection agent FuGENE HD (Promega, USA) according to the manufacturer's protocol. 24 hours after transfection 1 million of cells were resuspended in 0.5 ml of PBS, and luminescence without adding hispidin and with addition of hispidin (10 μg per 1 million of cells) was recorded by luminometer.

[3] = system: recombinant hispidin hydroxylase from Neonothopanus nambi; assay: HPLC analysis of hydroxylation by recombinant hispidin hydroxylase; assay type: biochemical; settings: 0.2 μM substrate, 1 mM NADPH, 30 minutes
Protocol: The isolated recombinant hispidin hydroxylase from Neonothopanus nambi, obtained according to Example 4, was added to reaction mixtures comprising 1 mM of NADPH and 0.2 μM of hispidin, (E)-4-hydroxy-6-styryl-2H-pyran-2-one or (E)-4-hydroxy-6-(4-hydroxystyryl)-2H-pyran-2-one in 100 μl of the buffer (0.2 M of Na-phosphate buffer, 0.5 M of Na2SO4, 0.1% dodecylmaltoside (DDM) pH 8.0). In 30 minutes, the reaction mixture was analyzed by HPLC using synthetic luciferins as standards.

O=c1cc(O)cc(/C=C/c2ccc(O)c(O)c2)o1 [hispidin, (E)-6-(3,4-dihydroxystyryl)-4-hydroxy-2H-pyran-2-one]
bioluminescence intensity exceeding the signal of control plants expressing luciferase only [1]: minimum by two orders of magnitude | luminescence intensity exceeding the signal from untransfected control cells (HEK293NT cells): more than by two orders of magnitude | cell luminescence on addition [2]: caused cell luminescence in green spectrum | HPLC detection of hydroxylated product [3]: occurrence of peaks corresponding to 3d position hydroxylated derivatives

— US20240117385A1, “ENZYMES OF LUCIFERIN BIOSYNTHESIS AND USE THEREOF” (LIGHT BIO, INC., priority 2018, published 2024)
